For six compounds, Activity, IC50 and MIC results are on record in ChEMBL document CHEMBL1145706, “Illudinic acid, a novel illudane sesquiterpene antibiotic” (J Nat Prod, 1997).

Assay [1] concerns P388. Kind of assay: In vivo antitumor activity against mouse P388 cells assessed as increase in life span at 5 mg/kg, ip for 5 days. Format: functional.
Assay [2] is described as follows: Antitumor activity against human myeloid leukemia cells xenografted mouse at 3 mg/kg, iv for 14 days. Format: functional, Leukemia cell. (In general: Xenograft models place foreign cells or tissue in a host animal.)
For assay [3], the system named is Staphylococcus aureus. Description: Antimicrobial activity against methicillin-resistant Staphylococcus aureus COL MB5393. Format: functional, organism-based.
For assay [4], the system named is L1210. Kind of assay: Cytotoxicity against mouse L1210 cells assessed as cell lysis after 24 hrs by trypan blue assay. Type of assay: functional, cell-based.
For assay [5], the system named is L1210. Kind of assay: Cytotoxicity against mouse L1210 cells assessed as cell viability by trypan blue assay. Format: functional, cell-based.
Assay [6] concerns L1210. Description: Cytotoxicity against mouse L1210 cells by MTT assay. Format: functional, cell-based.
In assay [7] the test system is Pectobacterium atrosepticum. Kind of assay: Antimicrobial activity against Erwinia atroseptica MB1159. Format: functional.
Assay [8] concerns Escherichia coli. Kind of assay: Antimicrobial activity against Escherichia coli MB1418. Format: functional.
In assay [9] the test system is Pseudomonas aeruginosa. Kind of assay: Antimicrobial activity against Pseudomonas aeruginosa MB2824. Type of assay: functional.
In assay [10] the test system is Proteus vulgaris. Kind of assay: Antimicrobial activity against Proteus vulgaris MB838. Type of assay: functional.
Assay [11] relates to Staphylococcus aureus. Kind of assay: Antimicrobial activity against Staphylococcus aureus MB108. Type of assay: functional.
The subject of assay [12] is Bacillus subtilis. Kind of assay: Antimicrobial activity against Bacillus subtilis MB964. Format: functional.
The subject of assay [13] is Enterococcus faecium. Description: Antimicrobial activity against Enterococcus faecium MB5572. Type of assay: functional.

Values after ≈ are worked out from the molar mass of the structure shown. Active and inactive are the calls of the source. No cut-off for these calls is given here.

On to `CC1=C2C(=C[C@@](C)(CO)[C@@H]2O)C(=O)[C@](C)(O)C12CC2`, for which the outcome in assay [1] was inactive.

In the case of `CC1=C2C(=O)C(C)(C)C=C2C(=O)[C@](C)(O)C12CC2` [DEHYDROILLUDIN M], the Activity in assay [2] stood at 75%.

For the compound `CC1=C2CC(C)(C)C=C2C(=O)[C@](C)(O)C12CC2` [DEOXYILLUDIN M], the Activity in assay [1] (route intraperitoneal) worked out at 24%.

One may read the IC50 as the midpoint of a concentration-inhibition curve. In the case of `COc1cccc2c1C(=O)c1c(O)c3c(c(O)c1C2=O)C[C@@](O)(C(=O)CO)C[C@@H]3O[C@H]1C[C@H](N)[C@H](O)[C@H](C)O1` [DOXORUBICIN], the results for the IC50 in assay [3], in assay [5] and in assay [6] were 16 µg/mL (≈ 29.4 µM), below 0.1 µg/mL and 0.2 µg/mL (≈ 0.368 µM), respectively. Moreover, in assay [4], the outcome was inactive.

As a reminder, the MIC is the lowest concentration that inhibits growth of the organism. High values mean a less susceptible organism, low ones a more susceptible organism. As for `C=C1C(=O)C2=C(C[C@](C)(C(=O)O)C2)[C@](C)(O)C12CC2` [ILLUDINIC ACID], the MIC in [7] was above 125 µg/mL; in assay [8], 125 µg/mL (≈ 477 µM); in assay [3], 16 µg/mL (≈ 61 µM); in assay [9], above 125 µg/mL; in [10], above 125 µg/mL; in assay [11], 1 µg/mL (≈ 3.81 µM). The MIC in assay [12] is 16 µg/mL (≈ 61 µM); in assay [13], above 125 µg/mL. In addition, the result in [4] was inactive. The results for the IC50 in assay [5] and in assay [6] were 10 µg/mL (≈ 38.1 µM) and 15 µg/mL (≈ 57.2 µM), respectively.

Turning to `CN[C@H](CC(C)C)C(=O)N[C@H]1C(=O)N[C@@H](CC(N)=O)C(=O)N[C@H]2C(=O)N[C@H]3C(=O)N[C@H](C(=O)N[C@H](C(=O)O)c4cc(O)cc(O)c4-c4cc3ccc4O)[C@H](O)c3ccc(c(Cl)c3)Oc3cc2cc(c3O[C@@H]2O[C@H](CO)[C@@H](O)[C@H](O)[C@H]2O[C@H]2C[C@](C)(N)[C@H](O)[C@H](C)O2)Oc2ccc(cc2Cl)[C@H]1O` [VANCOMYCIN], the outcome in assay [4] was inactive. Further, the IC50 in assay [5] and in [6] was above 1000 µg/mL each time.
